From patent US20240424011A1, “COMBINATION THERAPY OF HYPOXIA-RESPONSIVE PRODRUG OF AN ANTICANCER DRUG AND RADIOTHERAPY, AND NOVEL HYPOXIA-RESPONSIVE PRODRUG” (UNIVERSITY OF TSUKUBA, priority 2021, published 2024)
Each block holds one compound with its values, some of them ahead of it.

Tests used:
malignant tumor = assay: therapy combined with radiotherapy (in vivo), summary in the disclosure; set-up: species or system experimental animals
Description: Nevertheless, we investigated if there exists benefit or not in the therapy combined with radiotherapy using the PropHAP of gemcitabine. […] Even if the dose of the drug was increased, the effect stayed the same. […] Each PropHAP differs from gemcitabine in its chemical structure of the anticancer drug and the mechanism of action on tumors.

[1] = tested on: Human pancreatic cancer cells (MIA Paca-2); assay: In vivo study 1: MIA Paca-2 implant, gemcitabine or its HAP 120 mg/kg with radiotherapy; set-up: species or system Balb/c nude mice; conditions: i.p. 120 mg/kg twice/week plus 2 Gy; for tumor growth inhibitory effect: vs radiation monotherapy, FIG. 12
Experimental: Human pancreatic cancer cells (MIA Paca-2) were subcutaneously implanted into Balb/c nude mice (6 or 7 mice per group), respectively, and gemcitabine or gemcitabine HAP (prepared according to the method described in Examples of JP 5676020 B2) was intraperitoneally administered (120 mg/kg, twice/week) to examine the synergistic effect of the combination therapy with radiotherapy (2 Gy, on the day after drug administration, twice/week).

[2] = tested on: Human cancer cells (MIA Paca-2); assay: In vivo study 2 (part 2): MIA Paca-2 implant, comparison with 2-nitroimidazole, with irradiation; set-up: species or system Balb/c nude mice; conditions: i.p. 10 mg/kg twice/week plus 1 Gy; vs radiation alone, 2-nitroimidazole, and gemcitabine plus 2-nitroimidazole, FIG. 14
Experimental: Human cancer cells (MIA Paca-2) were subcutaneously implanted into Balb/c nude mice (7 mice per group), respectively, and 2-nitroimidazole (10 mg/kg, twice/week), 2-nitroimidazole and gemcitabine (10 mg/kg respectively, twice/week), and gemcitabine HAP (10 mg/kg, twice/week) were intraperitoneally administered to examine the synergistic effect of the combination therapy with irradiation (1 Gy, on the day after drug administration, twice/week).

[3] = tested on: Human pancreatic cancer cells (MIA Paca-2); assay: In vivo study 2: MIA Paca-2 implant, gemcitabine or its HAP 10 mg/kg with radiotherapy; set-up: species or system Balb/c nude mice; conditions: i.p. 10 mg/kg twice/week plus 1 Gy, vs radiation monotherapy and gemcitabine plus radiation
Experimental: Human pancreatic cancer cells (MIA Paca-2) were subcutaneously implanted to Balb/c nude mice (6 mice per group), and gemcitabine or gemcitabine HAP was intraperitoneally administered (10 mg/kg, twice/week) to examine the synergistic effect of the combination therapy with radiotherapy (1 Gy, on the day after drug administration, twice/week).

[4] = tested on: Human cholangiocarcinoma cells (HuCCT1); assay: In vivo study 3: HuCCT1 implant, gemcitabine or its HAP 30 mg/kg with radiotherapy; set-up: species or system Balb/c nude mice; conditions: i.p. 30 mg/kg twice/week plus 2 Gy; for tumor growth inhibitory effect: vs radiation monotherapy, FIG. 15
Experimental: Human cholangiocarcinoma cells (HuCCT1) were subcutaneously implanted into Balb/c nude mice (5 mice per group), respectively, and gemcitabine or gemcitabine HAP was intraperitoneally administered (30 mg/kg, twice/week), respectively to examine the synergistic effect of the combination therapy with radiotherapy (2 Gy, on the day after drug administration, twice/week).

[5] = tested on: Human breast cancer cells (MDA-MB-231); assay: cell viability of MDA-MB-231 at normal and low oxygen concentration, 2 days; type: cell-based; conditions: MDA-MB-231, normal vs low oxygen concentration (0.2%), FIG. 1
MDA-MB-231 cells = assay: MDA-MB-231 subcutaneous implant in mice, drug combined with radiotherapy; type: in vivo, Balb/c nude mice; conditions: oral 50/100 mg/kg plus 0.5 Gy; for tumor growth inhibitory effect: compared with radiation monotherapy, FIG. 3
Experimental: Balb/c nude mice (6 or 7 mice per group) were each subcutaneously implanted with MDA-MB-231 cells, and administered with niraparib or niraparib HAP to analyze the synergistic effect with radiotherapy.
Irradiation: 1 hour of drug administration followed by irradiation at 0.5 Gy

PARP = assay: detection of poly ADP ribosylated (PARylated) proteins by Western blotting; type: cell-based, Human; conditions: hypoxic environment, FIG. 2
Description: To determine whether the targeted PARP activity was inhibited under a hypoxic environment, proteins were recovered from the cells and poly ADP ribosylated (PARylated) proteins were detected by Western blotting.

[6] = tested on: Human malignant melanoma (A375) cells; assay: cell viability of A375 at normal and low oxygen concentration, 2 days; type: cell-based; conditions: A375, normal vs lower (0.2%) oxygen, FIG. 5, 6, 8
[7] = tested on: Human breast cancer cells (MDA-MB-231); assay: cell viability of MDA-MB-231 at normal and low oxygen concentration, 4 days; type: cell-based; conditions: MDA-MB-231, normal vs lower (0.2%) oxygen, FIG. 7
[8] = tested on: Human breast cancer cells (MCF-7); assay: cell viability of MCF-7 at normal and low oxygen concentration, 2 days; type: cell-based; conditions: MCF-7, normal vs lower (0.2%) oxygen, FIG. 9, 11
Description: The results are illustrated in FIG. 11.

[9] = tested on: Human pancreatic cancer cells (MIA Paca-2); assay: MIA Paca-2 subcutaneous implant in mice, palbociclib or its HAP with radiotherapy; type: in vivo, Balb/c nude mice; conditions: oral 100 mg/kg twice/week plus 2 Gy; vs radiation alone and vs palbociclib plus radiation, FIG. 10
Experimental: Human pancreatic cancer cells (MIA Paca-2) were subcutaneously implanted into Balb/c nude mice (6 mice per group), and palbociclib or palbociclib HAP was orally administered (100 mg/kg, twice/week) to examine the synergistic effect with radiotherapy (2 Gy on the day after drug administration, twice/week).

[10] = tested on: human breast cancer cells (MCF7); assay: MCF7 subcutaneous implant in mice, ribociclib or its HAP with radiotherapy; type: in vivo, Balb/c nude mice; conditions: oral 75 mg/kg twice/week plus 1 Gy; vs radiation alone or ribociclib plus radiation, FIG. 11
Experimental: A 17β-estradiol sustained-release pellet (manufactured by Innovative Research of America) and human breast cancer cells (MCF7) were subcutaneously implanted to Balb/c nude mice (6 mice per group), and ribociclib or ribociclib HAP was orally administered (75 mg/kg, twice/week) to examine the synergistic effect with radiotherapy (1 Gy, on the day after drug administration, twice/week). The results are illustrated in a lower panel of FIG. 11.

[11] = tested on: human breast cancer cells (MCF7); assay: MCF7 subcutaneous implant in mice, doxorubicin or its HAP with radiotherapy; type: in vivo, Balb/c nude mice; conditions: i.p. 4 or 16 mg/kg plus 0.5 Gy
Experimental: Balb/c nude mice (6 mice or more per group) were subcutaneously implanted with […] sustained-release pellets (produced by Innovative Research of America) and human breast cancer cells (MCF7), and intraperitoneally administered with doxorubicin (4 mg/kg. Day 0 and 2) or doxorubicin HAP 4 mg/kg, or 16 mg/kg, Day 0, 2, 7 and 9) to examine the synergistic effect with radiotherapy (0.5 Gy, Day 1, 3, 8 and 10). The results are shown in a lower panel of FIG. 16.

hypoxic cells = conditions: compared to typical radiotherapy alone; cited from earlier work
[12] = with radiotherapy, radiation dose at which the parent compound causes side effects such as weight loss
[13] = vs gemcitabine-administered group
[14] = compared with niraparib-administered group

SMILES: O=C(CCn1ccnc1[N+](=O)[O-])Nc1ccn([C@@H]2O[C@H](CO)C(O)C2(F)F)c(=O)n1 (stereo in doubt) [gemcitabine HAP]
- anticancer effects (malignant tumor; radiation and drug dose at which the parent shows no side effect, vs radiation alone, parent alone, parent plus radiotherapy): significantly superior anticancer effects
- therapeutic effect (malignant tumor; [12]): almost equivalent to that of the parent compound
- weight loss (malignant tumor; [12]): not resulting in a significant weight loss
- body weight [1, 13]: no decrease in body weight
- survival rate [1, 13]: improved survival rate
- tumor growth inhibitory effect [1]: tumor growth inhibitory effect was enhanced
- tumor growth inhibitory effect [2]: tumor growth inhibitory effect was enhanced
- tumor growth inhibitory effect ([3]; FIG. 13): effect was higher than that of gemcitabine
- tumor growth inhibitory effect ([3]; FIG. 13, listed as gemcitabine-HAP): tumor growth inhibitory effect was enhanced
- body weight [4, 13]: did not show a decrease in body weight
- tumor growth inhibitory effect [4]: tumor growth inhibitory effect was enhanced

SMILES: NC(=O)c1cccc2cn(-c3ccc(C4CCCN(C(=O)CCn5ccnc5[N+](=O)[O-])C4)cc3)nc12 (centres unmarked) [Compound 3]
- cytotoxicity (cell viability) [5]: cytotoxicity is recovered at the low oxygen concentration
- body weight (MDA-MB-231 cells; [14]): no decrease in body weight
- survival rate (MDA-MB-231 cells; [14]): improved survival rate
- tumor growth inhibitory effect (MDA-MB-231 cells): tumor growth inhibitory effect is enhanced
- PARP activity (PARylated proteins) (PARP): PARP activity is specifically inhibited under the low oxygen environment

SMILES: CC(C)(C)c1nc(-c2cccc(NS(=O)(=O)c3c(F)cccc3F)c2F)c(-c2ccnc(NC(=O)CCn3ccnc3[N+](=O)[O-])n2)s1 [Compound 9]
- cytotoxicity (cell viability) [6]: cytotoxicity is recovered at the low oxygen concentration

SMILES: CCCS(=O)(=O)Nc1ccc(F)c(C(=O)c2cn(C(=O)CCn3ccnc3[N+](=O)[O-])c3ncc(-c4ccc(Cl)cc4)cc23)c1F [Compound 11]
- cytotoxicity (cell viability) [6]: cytotoxicity is recovered at the low oxygen concentration

SMILES: O=C(CCn1ccnc1[N+](=O)[O-])Nc1ccccc1NC(=O)c1ccc(CNC(=O)OCc2cccnc2)cc1 [Compound 13]
- cytotoxicity (cell viability) [7]: cytotoxicity is recovered at the low oxygen concentration

SMILES: O=C(c1ccc(F)c(F)c1Nc1ccc(I)cc1F)N1CC(O)([C@@H]2CCCCN2C(=O)CCn2ccnc2[N+](=O)[O-])C1 [Compound 15]
- cytotoxicity (cell viability) [6]: cytotoxicity is recovered at the low oxygen concentration

SMILES: CC(=O)c1c(C)c2cnc(Nc3ccc(N4CCN(C(=O)CCn5ccnc5[N+](=O)[O-])CC4)cn3)nc2n(C2CCCC2)c1=O [Compound 17]
- cytotoxicity (cell viability) [8]: cytotoxicity is recovered at the low oxygen concentration
- tumor growth inhibitory effect [9]: tumor growth inhibitory effect was enhanced when radiation was used in combination

SMILES: CN(C)C(=O)c1cc2cnc(Nc3ccc(N4CCN(C(=O)CCn5ccnc5[N+](=O)[O-])CC4)cn3)nc2n1C1CCCC1 [Compound 19]
- cytotoxicity (cell viability) [8]: cytotoxicity is recovered at the low oxygen concentration
- tumor growth inhibitory effect [10]: tumor growth inhibitory effect was enhanced when radiation was used in combination

- weight loss ([11]; vs doxorubicin-administered group): did not show the weight loss
SMILES: COc1cccc2c1C(=O)c1c(O)c3c(c(O)c1C2=O)CC(O)(C(=O)CO)CC3OC1CC(NC(=O)CCn2ccnc2[N+](=O)[O-])C(O)C(C)O1 (centres unmarked) [doxorubicin HAP]
- tumor growth inhibitory effect ([11]; vs radiotherapy alone and doxorubicin plus radiation, FIG. 16): tumor growth inhibitory effect was enhanced when radiation was used in combination

SMILES: O=C(Cn1ccnc1[N+](=O)[O-])NCCO [etanidazole]
- survival rate (hypoxic cells): no significant improvement statistically in survival rate

SMILES: Nc1ccn([C@@H]2O[C@H](CO)[C@@H](O)C2(F)F)c(=O)n1 [gemcitabine, reference compound]
- tumor growth inhibitory effect [1]: tumor growth inhibitory effect was enhanced
- tumor growth inhibitory effect [4]: tumor growth inhibitory effect was enhanced

SMILES: O=[N+]([O-])c1cncn1CCN1CCOCC1 [nimorazole]
- survival rate (hypoxic cells): no significant improvement statistically in survival rate

SMILES: NC(=O)c1cccc2cn(-c3ccc([C@@H]4CCCNC4)cc3)nc12 [niraparib, reference compound]
- tumor growth inhibitory effect (MDA-MB-231 cells): tumor growth inhibitory effect is enhanced

SMILES: O=[N+]([O-])c1nccn1CC(O)CN1CCCCC1 (centres unmarked) [pimonidazole]
- survival rate (hypoxic cells): no significant improvement statistically in survival rate
